Patent publication US20220117938A1, “COMBINATON THERAPY WITH A DON PRODRUG AND AN IMMUNE CHECKPOINT INHIBITOR” (DRACEN PHARMACEUTICALS, INC., priority 2019, published 2022)

Test system: CT26.WT tumors
Test: Anti-tumor efficacy of Compound 1 and Compound 1 in combination with anti-PD-1 in the CT26.WT syngeneic model (Example 10)
Format: in vivo, mice
Procedure: Female BALB/c mice were inoculated subcutaneously in the right flank with CT26.WT cells for tumor development. Six days after tumor inoculation, mice with tumor sizes ranging from 30-81 mm^3 (average tumor size 55 mm^3) were selected and assigned into 10 groups using stratified randomization with 8 mice per group based upon their tumor volumes. The treatments were started from the day of randomization (defined as D0), Group 1 was treated with Vehicle control, 10 mpk, SC, qd 5 days on (Mon-Fri)×4 cycles; Group 2 was treated with Anti-PD-1, 10 mpk, IP, q4d×6; Group 3 was treated with Compound 1, 1.4 mpk, SC, qd 5 days on (Mon-Fri)×4 cycles; Group 4 was treated with Compound 1+anti-PD-1, 1.4 mpk+10 mpk, SC, qd 5 days on (Mon-Fri)×4 cycles+IP, q4d×6; Group 5 was treated with Compound 1, 10.5 mpk, IV, biw (Mon, Thu)×4 cycles; Group 6 was treated with Compound 1+anti-PD-1, 10.5 mpk+10 mpk, IV, biw (Mon, Thu)×4 cycles+IP, q4d×6; Group 7 was treated with Compound 1, 7 mpk IV, tiw (Mon, Wed, Fri)×4 cycles; Group 8 was treated with Compound 1+anti-PD-1, 7 mpk+10 mpk, IV, tiw (Mon, Wed, Fri)×4 cycles+IP, q4d×6; Group 9 was treated with Compound 1, 7 mpk IV, tiw (Mon, Tue, Wed)×4 cycles; and Group 10 was treated with Compound 1+anti-PD-1, 7 mpk+10 mpk, IV, tiw (Mon, Tue, Wed)×4 cycles+IP, q4d×6. The tumor sizes were measured three times per week during the treatment. Survival was monitored with tumor volume exceeding 2000 mm^3 as endpoint. The entire study was terminated on D56 after start of the treatment. All treatments were well-tolerated without any adverse effects or significant body weight loss.

[1] = Group 3, 1.4 mpk SC qd Mon-Fri x4 cycles
[2] = Group 3, 1.4 mpk SC qd Mon-Fri x4 cycles, day 14
[3] = Group 5, 10.5 mpk IV biw x4 cycles
[4] = Group 5, 10.5 mpk IV biw x4 cycles, day 14
[5] = Group 7, 7 mpk IV tiw (Mon,Wed,Fri) x4 cycles
[6] = Group 7, 7 mpk IV tiw (Mon,Wed,Fri) x4 cycles, day 14
[7] = Group 9, 7 mpk IV tiw (Mon,Tue,Wed) x4 cycles
[8] = Group 9, 7 mpk IV tiw (Mon,Tue,Wed) x4 cycles, day 14

## CC(=O)N[C@@H](Cc1c[nH]c2ccccc12)C(=O)N[C@@H](CCC(=O)C=[N+]=[N-])C(=O)OC(C)C [Compound 1, Isopropyl (S)-2-((S)-2-acetamido-3-(1H-indol-3-yl)propanamido)-6-diazo-5-oxohexanoate]
[1]
  ILS: 81.0%
  MST: 38 days
  RTV at day 14: 3.07 ± 0.38
  Tumor Size at day 14: 172 ± 29 mm^3
Group 3, 1.4 mpk SC qd Mon-Fri x4 cycles, day 0
  Tumor volume: 56 ± 5 mm^3
Group 3, 1.4 mpk SC qd Mon-Fri x4 cycles, day 2
  Tumor volume: 59 ± 5 mm^3
Group 3, 1.4 mpk SC qd Mon-Fri x4 cycles, day 11
  Tumor volume: 103 ± 13 mm^3
[2]
  T/C: 17.06%
  TGI: 88.16%
  Tumor volume: 172 ± 29 mm^3
Group 3, 1.4 mpk SC qd Mon-Fri x4 cycles, day 16
  Tumor volume: 163 ± 20 mm^3
Group 3, 1.4 mpk SC qd Mon-Fri x4 cycles, day 18
  Tumor volume: 191 ± 26 mm^3
Group 3, 1.4 mpk SC qd Mon-Fri x4 cycles, day 21
  Tumor volume: 258 ± 25 mm^3
Group 3, 1.4 mpk SC qd Mon-Fri x4 cycles, day 23
  Tumor volume: 276 ± 36 mm^3
Group 3, 1.4 mpk SC qd Mon-Fri x4 cycles, day 25
  Tumor volume: 278 ± 42 mm^3
Group 3, 1.4 mpk SC qd Mon-Fri x4 cycles, day 28
  Tumor volume: 466 ± 62 mm^3
Group 3, 1.4 mpk SC qd Mon-Fri x4 cycles, day 30
  Tumor volume: 682 ± 103 mm^3
Group 3, 1.4 mpk SC qd Mon-Fri x4 cycles, day 32
  Tumor volume: 1012 ± 189 mm^3
Group 3, 1.4 mpk SC qd Mon-Fri x4 cycles, day 35
  Tumor volume: 1417 ± 260 mm^3
[3]
  ILS: 76.2%
  MST: 37 days
  RTV at day 14: 3.21 ± 1.03
  Tumor Size at day 14: 170 ± 51 mm^3
Group 5, 10.5 mpk IV biw x4 cycles, day 0
  Tumor volume: 56 ± 5 mm^3
Group 5, 10.5 mpk IV biw x4 cycles, day 2
  Tumor volume: 52 ± 5 mm^3
Group 5, 10.5 mpk IV biw x4 cycles, day 11
  Tumor volume: 113 ± 24 mm^3
[4]
  T/C: 17.83%
  TGI: 88.39%
  Tumor volume: 170 ± 51 mm^3
Group 5, 10.5 mpk IV biw x4 cycles, day 16
  Tumor volume: 214 ± 60 mm^3
Group 5, 10.5 mpk IV biw x4 cycles, day 18
  Tumor volume: 226 ± 59 mm^3
Group 5, 10.5 mpk IV biw x4 cycles, day 21
  Tumor volume: 381 ± 119 mm^3
Group 5, 10.5 mpk IV biw x4 cycles, day 23
  Tumor volume: 439 ± 128 mm^3
Group 5, 10.5 mpk IV biw x4 cycles, day 25
  Tumor volume: 562 ± 197 mm^3
Group 5, 10.5 mpk IV biw x4 cycles, day 28
  Tumor volume: 849 ± 264 mm^3
[5]
  ILS: 76.2%
  MST: 37 days
  RTV at day 14: 3.34 ± 0.97
  Tumor Size at day 14: 201 ± 67 mm^3
Group 7, 7 mpk IV tiw (Mon,Wed,Fri) x4 cycles, day 0
  Tumor volume: 55 ± 5 mm^3
Group 7, 7 mpk IV tiw (Mon,Wed,Fri) x4 cycles, day 2
  Tumor volume: 61 ± 9 mm^3
Group 7, 7 mpk IV tiw (Mon,Wed,Fri) x4 cycles, day 11
  Tumor volume: 111 ± 33 mm^3
[6]
  T/C: 18.56%
  TGI: 85.12%
  Tumor volume: 201 ± 67 mm^3
Group 7, 7 mpk IV tiw (Mon,Wed,Fri) x4 cycles, day 16
  Tumor volume: 238 ± 94 mm^3
Group 7, 7 mpk IV tiw (Mon,Wed,Fri) x4 cycles, day 18
  Tumor volume: 256 ± 101 mm^3
Group 7, 7 mpk IV tiw (Mon,Wed,Fri) x4 cycles, day 21
  Tumor volume: 471 ± 261 mm^3
[7]
  ILS: 92.9%
  MST: 40.5 days
  RTV at day 14: 2.32 ± 0.84
  Tumor Size at day 14: 132 ± 46 mm^3
Group 9, 7 mpk IV tiw (Mon,Tue,Wed) x4 cycles, day 0
  Tumor volume: 56 ± 4 mm^3
Group 9, 7 mpk IV tiw (Mon,Tue,Wed) x4 cycles, day 11
  Tumor volume: 79 ± 19 mm^3
[8]
  T/C: 12.89%
  TGI: 92.20%
  Tumor volume: 132 ± 46 mm^3
Group 9, 7 mpk IV tiw (Mon,Tue,Wed) x4 cycles, day 16
  Tumor volume: 131 ± 52 mm^3
Group 9, 7 mpk IV tiw (Mon,Tue,Wed) x4 cycles, day 18
  Tumor volume: 160 ± 65 mm^3
Group 9, 7 mpk IV tiw (Mon,Tue,Wed) x4 cycles, day 21
  Tumor volume: 248 ± 104 mm^3
Group 9, 7 mpk IV tiw (Mon,Tue,Wed) x4 cycles, day 23
  Tumor volume: 252 ± 103 mm^3
Group 9, 7 mpk IV tiw (Mon,Tue,Wed) x4 cycles, day 25
  Tumor volume: 255 ± 106 mm^3
Group 9, 7 mpk IV tiw (Mon,Tue,Wed) x4 cycles, day 28
  Tumor volume: 447 ± 186 mm^3
Group 9, 7 mpk IV tiw (Mon,Tue,Wed) x4 cycles, day 30
  Tumor volume: 695 ± 300 mm^3
